Source: US20140243401A1, “METHODS OF SCREENING COMPOUNDS THAT ARE CYTOTOXIC TO TUMOR CELLS AND METHODS OF TREATING TUMOR CELLS USING SUCH COMPOUND” (The Johns Hopkins University, priority 2010, published 2014)
Where “and” joins values, the source holds several entries; their conditions need not be identical. Equal entries are not always repeated.

Key:
[1] = test system: MCF7 cells; assay: cellular ATP level, bioluminescence; format: cell-based, human
Procedure: As mitochondria serve as the energy production center of the cell, their main purpose is the generation of ATP. As a functional readout, cellular ATP levels may be measured to obtain an indication of mitochondrial status upon compound treatment. MCF-7 cells were cultured the standard medium, and ATP levels were measured by chemiluminescence.
MCF7 human breast cancer cells cultured in DMEM containing 5 mM glucose medium with 10% fetal calf serum, 0.01 mg/ml insulin and 1% penicillin/streptomycin. Cells were plated in 24-well cell culture plates at 2×10^5 per well overnight. After drug treatment, cells were lysed using 500 μl of TE buffer (4 mM Tris, 0.25 mM EDTA, pH 7.4) and boiled at 95° C. for 7 min. ATP levels were measured within the linear range using the ATP BioLuminescence Kit CLSII (Roche) by following the manufacture's recommendation. Luminescence was detected using PerkinElmer Victor 1420.
Determination of the effect on cellular ATP level was carried out using the procedure described above. Cells were plated in 24 well cell culture plates at 2×10^5 per well overnight. Cells were cultured in 1 mM or 5 mM glucose at either 1% or 21% (ambient) oxygen levels. […] ATP levels were measured within the linear range using the ATP Bioluminescence Kit CLSII (Roche) by following the manufacture's recommendation. Luminescence was detected using PerkinElmer Victor 1420.

[2] = test system: human cancer cell lines; assay: XTT cytotoxicity assay, all human cancer cell lines tested; format: cell-based
Procedure: Cytotoxicity can be easily measured using XTT assays, which provide an indication of mitochondrial activity. The XTT assay is a non-radioactive alternative for the [^51Cr] release cytotoxicity assay. XTT is a tetrazolium salt that is reduced to a formazan dye only by metabolically active, viable cells. The reduction of XTT is measured spectrophotometrically as OD490-OD650. Thus, cells that are actively metabolizing will form reaction product when subjected to XTT measurement.
For this experiment, cells were cultured under standard culture conditions. MCF7 human breast cancer cells were cultured in DMEM containing 5 mM glucose medium with 10% fetal calf serum, 0.01 mg/ml insulin and 1% penicillin/streptomycin. To measure the cytotoxicity of specific compounds against cancer cells, 9×10^3 MCF7 cells were plated per well in 96-well plates. Following overnight culture, the compounds, dissolved in DMSO, were added to the wells in 1 μl volume at specified concentrations. Vehicle controls were run for each experiment. Each condition was run in triplicate. After 24 to 72 h of incubation, cells were incubated for 4 hours with the XTT reagent as per manufacturer's instructions (Cell Proliferation Kit II (XTT) Roche Diagnostics, New Jersey). Plates were read at OD490 on a PerkinElmer Victor 1420. Three wells containing the XTT reagent without cells served as the plate blank. […]

[3] = test system: mitochondrial FAS; assay: 14C-malonate incorporation into lipids of mitochondria isolated from MCF7 cells; format: biochemical, human; conditions: FIG. 2, vs vehicle
Procedure: Mammalian mitochondrial FAS activity may be determined in a variety of ways. For example, [14C]malonate may be added to isolated mitochondria, fatty acids are extracted, and then radioactivity is tested. (See Zhang et al., J. Bio. Chem. 278(41): 40067-40074, 2003; Mikolajczyk, J. and Brody, S., Eur. J. Biochem. 187: 431-437, 1990). The mitochondria are purified using methods known in the art. (See Qiagen's Qproteome Mitochondria Isolation Kit; Methods in Enzymology, Vol. 10, Chapter 11, 1967). To test the inhibition of mmFAS activity, a test compound is added to the reaction mixture. Therefore, a test compound may be screened according the methods described herein as follows: (i) isolating mitochondria; (ii) incubating mitochondria with [14C]malonate with and without a test compound; and (iii) determining the quantity of lipids and/or fatty acids produced. By comparing the amount of product in the presence of the test compound to the amount in its absence, the degree of inhibition can be determined.
Mitochondria from MCF7 cells were prepared following manufacturer's protocol (Mitochondria Isolation Kit, Sigma, Saint Louis, Mo.). Rat liver mitochondria were isolated by homogenization with a tissue homogenizer in H-medium (220 mM mannitol, 70 mM sucrose, 2 mM HEPES, and 0.5 g/L of fatty acid free bovine serum albumin, pH 7.4). […]

In the case of CCCCCCCCC1(C)SC(=O)C=C1OCC(=O)Nc1ccc(Cl)cc1 (centres unmarked) [Compound C31], the ATP levels ([1]; MCF7, 1 mM or 5 mM glucose, 1% or 21% oxygen, FIG. 10) was “ATP levels declined in all of the cells”, the ATP levels ([1]; MCF7, standard medium 5 mM glucose, FIG. 5) was “rapidly decreased” and the CC50 ([2]; Homo sapiens, XTT, range over all cancer cell lines, read-out: LC50, human cancer cell lines) was 3.3 µg/mL to 16.7 µg/mL and 8.25 µM to 41.8 µM. The “potential therapeutic index in vitro” value ([2]; hepatocyte LC50 vs cancer cell line LC50) was 34 to 170 fold and the “effect on 14C-malonate incorporation into lipids of isolated mitochondria” value [3] was “inhibited the incorporation of malonate into lipids in a dose-dependent manner”.
